Assay results as given in PMC12164272, “Ruthenium(II) Polypyridyl Complexes Containing COUBPY Ligands as Potent Photosensitizers for the Efficient Phototherapy of Hypoxic Tumors” (Journal of the American Chemical Society, 2025).
Read-outs that look alike come from different tables or passages of the source.

Assays:
[1] = system: CT-26 cancer cells; assay: (Photo)cytotoxicity in 2D monolayer cells under normoxia (21% O2), resazurin assay; type: cell-based, murine; settings: for Phototherapeutic index (PI) = IC50(dark)/IC50(light): normoxia; for IC50: Mus musculus
[2] = cited from earlier work

C=CC1=C(C)c2cc3[nH]c(cc4nc(cc5[nH]c(cc1n2)c(C)c5CCC(=O)O)C(CCC(=O)O)=C4C)c(C)c3C=C [PpIX, Protoporphyrin IX]
Phototherapeutic index (PI) = IC50(dark)/IC50(light) ([1]; 540 nm): >312 | Phototherapeutic index (PI) = IC50(dark)/IC50(light) ([1]; 595 nm): >250 | Phototherapeutic index (PI) = IC50(dark)/IC50(light) ([1]; 620 nm): >151 | Phototherapeutic index (PI) = IC50(dark)/IC50(light) ([1]; 645 nm): >588 | Phototherapeutic index (PI) = IC50(dark)/IC50(light) ([1]; 670 nm): >129 | Phototherapeutic index (PI) = IC50(dark)/IC50(light) ([1]; 740 nm): >50 | IC50 ([1]; CT26, 540 nm, 9.0 J cm–2, normoxia 21% O2): 320 ± 90 nM | IC50 ([1]; CT26, 595 nm, 3.4 J cm–2, normoxia 21% O2): 400 ± 10 nM | IC50 ([1]; CT26, 620 nm, 6.7 J cm–2, normoxia 21% O2): 660 ± 210 nM | IC50 ([1]; CT26, 645 nm, 9.0 J cm–2, normoxia 21% O2): 170 ± 210 nM | IC50 ([1]; CT26, 670 nm, 13.5 J cm–2, normoxia 21% O2): 770 ± 200 nM | IC50 ([1]; CT26, 740 nm, 12.6 J cm–2, normoxia 21% O2): 2100 ± 200 nM | IC50 ([1]; CT26, 4 h, dark, normoxia 21% O2, 4 h incubation): > 100000 nM

CN(C)c1ccc2nc3ccc(=[N+](C)C)cc-3sc2c1 [methylene blue]
reference singlet oxygen quantum yield ΦΔ,ref ([2]; aerated DCM): 0.57

[Cl][Ru][Cl].c1ccc(-c2ccccn2)nc1.c1ccc(-c2ccccn2)nc1.c1ccc(-c2ccccn2)nc1 [[Ru(bpy)3]Cl2]
reference singlet oxygen quantum yield ΦΔ,ref ([2]; aerated CH3CN): 0.57
